# Results: a melting point compilation (Tetko et al.; mined from patent text by program, amines drawn as free bases though some values may be those of a salt)
row,melting point,Structure (SMILES)
1,122 to 123 °C,Cc1sc(N)c(C(=O)c2ccsc2)c1C
2,145 to 146 °C,CC(=O)c1ccc(Nc2cccc(-c3ccccn3)c2)c(N)c1
3,80 to 81 °C,CCCCCCCCC(C)C(N)=O (configuration not stated)
4,50 to 53 °C,C=CCOC(=O)c1ccc(N=C(SC)c2ccc(OC)c(C34CC5CC(CC(C5)C3)C4)c2)cc1
5,156 to 158 °C,CC1(C)NC(=O)c2ccc(OCCBr)cc2O1
6,58 to 60 °C,CCOC(C)O[C@H]1C(=O)N(C(=O)OCc2ccccc2)[C@H]1c1ccccc1 (some centres not stated)
7,148 to 150 °C,CCS(=O)(=O)Oc1cc2c(C)c(CCN3CCN(c4ccccc4OC)CC3)c(=O)oc2cc1OC
8,290 to 291 °C,COc1cc2c(Nc3ccc(C)c(O)c3)ncnc2cc1OCc1ccncn1
9,194 to 195 °C,O=C(O)c1[nH]c(-c2cccs2)cc1-c1ccc(F)cc1
10,171 to 172 °C,CC(=O)N1CCN(Cc2cnc(-c3cc4c(C)ccc(N(C)S(=O)(=O)c5cccs5)c4[nH]3)s2)CC1
11,109 to 114 °C,N#CC1(CCNC(=O)C(Cl)Cl)CCCCC1
12,168 to 170 °C,O=C(O)C1=Cc2cc(I)ccc2OC1C(F)(F)F (configuration not stated)
13,170 °C,Cc1nn(C)c(-n2ccc3cc(Cl)ccc32)c1CCS(=O)(=O)NC(=O)OCC1CC1
14,225 to 226 °C,CSc1ccc(NC(=O)N2CC(c3ccc(C(F)(F)F)cn3)C(c3ccc(Cl)cc3)=N2)cc1 (configuration not stated)
15,143 °C,O=C(Cc1cccc2ccccc12)Nc1cc([C@H]2C[C@@H](NC(=O)c3cccc(C(F)(F)F)c3)C2)[nH]n1
16,170 to 171 °C,COc1ccc2c(c1)c(CC(=O)N(C)O)c(C)n2C(=O)c1ccc(Cl)cc1
17,263 to 264 °C,O=C(C=Cc1ccccc1)NNC(=O)c1ccc(O)cc1
18,165 °C,CON=C(C(=O)OC)c1csc(N)n1
19,143 to 145 °C,COc1ccc(NC(NC(c2ccc(CC(C)(C)C)s2)C2CCCCC2)=C2C(=O)OC(C)(C)OC2=O)c(OC)c1 (configuration not stated)
20,219 to 220 °C,COc1ccc2c(c1)N(c1ccc(F)cc1)C(=O)C2NC(=O)c1cc2ccccc2cn1 (configuration not stated)
21,52 to 53 °C,CCOC(=O)C=Cc1ccc(OC2CCCCO2)cc1 (configuration not stated)
22,202 to 204 °C,CCC(C)(CC)c1nnc(NC(=S)c2c(OC)cccc2OC)s1
23,57 to 60 °C,COC(=O)CSCc1cnc(OC)c([N+](=O)[O-])c1
24,230 to 231 °C,O=C(NCc1cccc(O)c1)c1[nH]c2ccc(Cl)cc2c1S(=O)(=O)c1cccc(Cl)c1
25,60 °C,CC(C)=CCOC1=CC(=O)c2ccccc2C1=O

row,melting point,Structure (SMILES)
1,289 °C,COc1cc(S(N)(=O)=O)cnc1N=Nc1cc(OC(C)C)c2ccccc2c1O
2,92 to 93 °C,OC(c1ccc(F)cc1)c1cc(Br)cc(Br)c1 (configuration not stated)
3,272 to 274 °C,COC1(c2ccc(C(C)C)cc2O)C(=O)c2ccccc2C1=O
4,111 to 113 °C,COCCOc1ccc(CCCNS(=O)(=O)c2ccc(Cl)cc2)c(Oc2ncc(C(F)(F)F)cc2Cl)c1
5,66 to 68 °C,Cc1nc(CSc2cccc(Cl)c2Cl)no1
6,220 °C,COc1cc(C)nc(NC(N)=S)n1
7,73 to 74 °C,CCOC(=O)c1ccc(O)c(CC)c1
8,38 to 48 °C,CC(C)(C)C1OC1C(O)C1CCCCC1 (configuration not stated)
9,235 to 236 °C,CCOC(=O)c1nc2cc(Br)c(Br)cc2[nH]c1=O
10,237 to 239 °C,Cn1cnc(COc2nn3c(-c4ccccc4)nnc3cc2-c2cccs2)n1
11,177 to 179 °C,CCCCOC(=O)Cc1ccc(N[C@@H](CCC(N)=O)C(=O)O)cc1
12,268 to 270 °C,CC12CCC3c4ccc(C(=O)O)cc4CCC3C1CCC2C(=O)c1ccc(-c2ccccc2)cc1 (configuration not stated)
13,128 °C,CCCC1COC(Cn2nc[nH]c2=S)(c2ccc(Cl)cc2Cl)O1 (configuration not stated)
14,116 to 118 °C,CCc1[nH]c(=S)n(Nc2cccc(Cl)c2)c1-c1ccccc1
15,187 to 189 °C,CCC1CCn2c(nc(-c3ccncn3)cc2=O)N1CC(=O)c1ccccc1 (configuration not stated)
16,122 to 124 °C,CCOC(=O)C1=C(C)NC(=S)N(C(=O)OCc2ccccc2)C1c1cccc([N+](=O)[O-])c1 (configuration not stated)
17,109 to 110 °C,CCOC(=NC(=O)c1ccc(F)cc1)N1Cc2ccccc2-c2ccccc2C1
18,186 to 188 °C,Cc1c(C(=O)O)c(CC(=O)O)n(C)c1C(=O)c1cccnc1
19,116 to 117 °C,CCCC1(CCC)c2ccccc2-c2ccc(O)cc21
20,133 to 135 °C,COC(=O)c1ccc(OC)c(CC2COc3ccc(OCc4ccccc4)cc3C2O)c1 (configuration not stated)
21,198 to 199 °C,CCc1nc(/C=C/c2cn(-c3ccccc3)nc2OCc2ccc(OCc3nc(-c4ccc(CC(=O)O)cc4)oc3C)c(OC)c2)c(C)s1
22,150 to 152 °C,CCC1(CC)OC(=O)Nc2ccc(Br)cc21
23,63 to 65 °C,FC(F)(F)Cn1cc(C#Cc2cccc(OCC3CC3)c2)cn1
24,126 to 128 °C,Nc1ccc(OCc2ccccc2)c2cnsc12
25,95 to 97 °C,COC(=O)c1cc(Cl)sc1S(=O)(=O)Cl

row,melting point,Structure (SMILES)
1,213 °C,COc1ccc(OCC(=O)O)c(C(Nc2ccc(C(=N)N)cc2)C(=O)O)c1 (racemic)
2,203 to 205 °C,CNC(=O)c1cc(C(=O)O)c2cc(Cc3ccc(F)cc3)cnc2c1O
3,117 to 119 °C,Oc1nnc(-c2ccc(CN3CCCCCC3)s2)o1
4,55 to 57 °C,C[C@H]1CCCC(C)(C)[C@@H]1[C@H](O)c1ccc(F)cc1
5,176 °C,C#Cc1cc2c(Nc3ccc4[nH]ccc4c3)ncnc2cc1OC
6,218 to 225 °C,Cc1ccnc(C(=O)c2[nH]c3ccc(C(F)(F)F)cc3c2CC(=O)O)c1
7,116 to 119 °C,COC(=O)c1cc(-c2cccc(C3=NC(C)(C)Cc4cc(OC)c5c(c43)CC(C)(C)O5)c2)ccc1NC(C)=O
8,196 to 198 °C,COC(=O)Nc1cccc(C)c1COc1cccn2c(C=O)c(C)nc12
9,205 to 206 °C,CCCCOC(=O)C=C(C)C=CC=C(C)C=Cc1c(C)cc(C)c([N+](=O)[O-])c1C
10,60 to 62 °C,CCOC(=O)CCCNc1ccccc1-c1ccccc1
11,151 to 155 °C,Cc1ccc(S(N)(=O)=O)cn1
12,183 to 186 °C,N#Cc1ccc2ccnc(N)c2c1
13,276 °C,CCCCc1cnc2ccccc2c1Nc1ccc(C(=O)O)cc1
14,107 to 108 °C,COC(=O)c1cc(CCl)ccc1OCc1nc(-c2ccco2)oc1C
15,128 to 130 °C,Nc1ncc(Sc2ncccc2O)s1
16,88 to 89 °C,CCCc1c(OCCCOc2ccc(C#N)cc2Br)ccc(C(C)=O)c1O
17,202 to 204 °C,N#Cc1ncc(-c2ccc(Br)cc2)cn1
18,93 to 95 °C,O=C(COC1CCCCCCCCCCC1)C1=C(O)CSC1=O
19,286 to 290 °C,Nc1cc(-c2ccccc2)n(-c2ccc(S(N)(=O)=O)cc2)n1
20,158 to 160 °C,Nc1cccc(C=Cc2ccc3ccccc3n2)c1
21,235 to 237 °C,O=C(O)c1ccccc1N1CCN(CC(O)COc2ccc(O)cc2)CC1 (configuration not stated)
22,156 to 158 °C,Nc1c(CC(=O)N2CCOCC2)cccc1C(=O)c1ccccc1
23,88 to 89.5 °C,CCN(CC)C(=O)N(C)C(=O)Nc1ccccc1
24,42 to 43 °C,COc1ccc(C=CCCCCCC(=O)O)cc1
25,202 to 203 °C,CCc1c(Cc2[nH]c(Cc3[nH]c(C=O)c(C)c3CC)c(CC)c2CC)[nH]c(C=O)c1C

row,melting point,Structure (SMILES)
1,166 to 167 °C,CCn1c(=O)n(OCc2ccccc2)c(=O)c2cc(F)c(N3CCNCC3)cc21
2,184 to 185 °C,CCCN(c1cccc(-c2ccnc3c([N+](=O)[O-])cnn23)c1)S(=O)(=O)c1ccc(OC)cc1
3,173 to 174 °C,CCCN(CC(=O)Nc1c(OC)nc(C)nc1OC)c1ccccc1
4,187 to 189 °C,Cc1nc(N2CCN(CC3CC3)C2=O)sc1C(=O)NCc1cccnn1
5,218 to 220 °C,O=c1cc(-c2ccncc2)nc2n1CCN2CCCc1c[nH]c2ccccc12
6,222 to 224 °C,Cc1nc(N2CCCC2=O)sc1C(=O)NCc1ccccc1
7,168 to 171 °C,O=C(O)CCCCc1ccc2cncn2c1
8,71 to 75 °C,CCCc1c(OCCOCCOc2ccc3ccc(OCCCC(=O)O)cc3c2C(C)=O)ccc(C(C)=O)c1O
9,165 to 178 °C,c1csc(-c2ccc(-c3cc4ncnc(Nc5ccc6[nH]ccc6c5)c4s3)cc2)c1
10,96 to 97 °C,Nc1ccc(C(=O)NNCCC(=O)OCc2ccccc2)cc1
11,116 to 118 °C,CCCCc1nc2c(N)nc3ccccc3c2n1CCOCCON=C(C)C
12,85 to 87 °C,O=C(O)Cc1ccccc1Sc1ccc(F)c(Cl)c1
13,195 to 196 °C,CC(=NNC(=N)N)c1sc(-c2ccccc2)nc1C
14,120 to 122 °C,CC(C)NC(=O)N1CCc2cc(S(=O)(=O)N3CC(c4ccccc4)NC3=O)ccc21 (configuration not stated)
15,100 °C,COc1ccc(S(=O)(=O)c2ccccc2C(C)C)cc1
16,209 °C,O=C(O)c1cccc2cc(Sc3cc(Cl)ncn3)ccc12
17,147 to 149 °C,CC(C)(C)OC(=O)NC1CCCCCC=CC2CC2(C(=O)NS(=O)(=O)C2CC2)NC(=O)C2CC(OC(=O)c3ccc(Cl)c(F)c3)CN2C1=O (configuration not stated)
18,179 to 180 °C,CC(C)(C)c1csc(-c2cc3cc(O)ccc3o2)n1
19,124 °C,O=C(O)CC1CCCCCCCCCCC1=O (configuration not stated)
20,94 to 96 °C,CC(=O)C(C(=O)OC(C)(C)C)C(=O)c1ccc(C(=O)C(C(C)=O)C(=O)OC(C)(C)C)cc1 (configuration not stated)
21,95 to 96 °C,COc1ccc2c(CCC3CCN(C(=O)OC(C)(C)C)CC3)noc2c1
22,78 to 82 °C,O=C(C(=O)c1cccc(Br)c1)c1ccccc1
23,250 to 252 °C,O=C(O)Cc1sc2nc3ncccc3n2c1-c1ccc(Cl)cc1
24,72 to 75 °C,O=C(CC1CC1)Nc1c(C(=O)c2ccccc2)[nH]c2cc(Cl)ccc12

row,Structure (SMILES),melting point
1,NS(=O)(=O)c1cc(C(=O)O)cc(SCC(Br)CBr)c1Cc1ccccc1 (configuration not stated),205 to 207 °C
2,O=c1oc2ccccc2c(O)c1C1CC(c2ccc(Cc3ccc(-c4ccccc4)cc3)cc2)Cc2ccccc21 (configuration not stated),118 to 121 °C
3,CN(C)C=C1N=C(c2ccccc2Cl)c2cc(I)ccc2N(C)C1=O,182 to 184 °C
